Source: patent US20240245787A1, “E3 LIGASE BINDERS AND USES THEREOF” (President and Fellows of Harvard College, priority 2021, published 2024)
Like-named read-outs stand apart in the source and are kept apart here. No end group written: not given here.

Assays:
IKZF1 [1] = assay: Global quantitative proteomics of MM.1S cells; type: cell-based, human (Homo sapiens); details: 10 μM, 10 h
Method: Global proteomics samples were prepared in biological triplicate for each condition. 1.5×10^6 HEK293T or MM.1S cells were seeded in 6-well plates and incubated at 37° C., 5% CO2 for 30 min. Small molecules of interested were then added, and cells were incubated at 37° C., 5% CO2 for the indicated time. […] After protein quantification by BCA protein assay, the lysates were diluted to 1 mg/mL with the lysis buffer. The diluted lysates (100 μL) were reduced by addition of dithiothreitol (20 mM) at 24° C. for 30 min then alkylated by addition of iodoacetamide (40 mM) and incubation in the dark at 24° C. for 30 min.
S-Trap buffer (90% methanol, 0.1 M TEAB, pH 7.1, 900 μL) was then added. Each sample was transferred to a S-Trap micro column. Using a vacuum manifold, the columns were washed with S-Trap buffer (3×150 μL). […] The digested peptides were eluted by sequential addition of 50 mM TEAB pH 8.0 (40 μL), ddH2O (40 μL) and 0.2% formic acid, 50% acetonitrile/water (35 μL), with each elution collected by centrifugation (4,000× g, 24° C., 1 min) in a clean Eppendorf tube. The eluted samples were concentrated to dryness in a vacufuge and resuspended in 45 or 80 μL ddH2O for 9 or 16 samples, respectively. For each resuspended sample, 5 μL was taken for labeling with TMT reagent (2 μL) at 24° C. for 1 h such that the combined total protein was 100 μg. […] The TMT-labeled samples were combined and dried in a vacufuge. The dried sample was resuspended in 300 μL 0.1% trifluoroacetic acid (TFA) and fractionated to 20 fractions using a Pierce high pH reversed-phase peptide fractionation kit. […] The first fraction (4% acetonitrile/0.1% TEA) was excluded from LC-MS/MS analysis. The other fractions were concentrated to dryness and each sample was resuspended in 20 μL of 0.1% formic acid prior to LC-MS/MS analysis. […]
Analysis was performed in Thermo Scientific Proteome Discoverer version 2.4.1.15. […] The TMT reporter ions were quantified using the Reporter Ions Quantifier node and normalized such that the summed peptide intensity per channel was equal. […]

FIG. 22C = assay: FIG. 22C
From the text: Table printed on a drawing sheet, FIG. 22C
First reader's note: Per the description this is an in vitro permeability assay in Caco-2 cells; Boc-FcQ and Boc-FcN are Boc-protected dipeptide cyclic imides (cyclimids).

MM.1S cells = assay: Cell viability (MTT) assay; type: cell-based; details: Homo sapiens, MM1.S, 120 h, 5 d, read-out: IC50 (anti-proliferative effect)
Method: 2.0×10^4 MM.1S cells were seeded in each well of a 96-well plate containing 100 μL RPMI160 media supplemented with 10% FBS and 1× penicillin-streptomycin. The compound of interest was added to each well to a final concentration of 10 nM-100 μM from 100× stock solutions in 4% DMSO/PBS (1 μL). Samples were incubated at 37° C., 5% CO2 for 5 days. Each well was treated with 3-(4,5-Dimethylthiazol-2-yl)-2,5-diphenyltetrazolium (MTT, 4 mg/mL, 10 μL), and the treated plate was incubated at 37° C., 5% CO2 for 3 h. The formazan crystals were solubilized by the addition of 100 μL of 10% SDS, 0.01 M HCl per well, and the plate was allowed to incubate at 37° C. overnight. The absorbance at 570 nm was measured to quantify the formazan generated in each well. The blank was defined by wells containing media and MTT reagent without any cells. For each treatment well, the cell viability was calculated by subtracting the blank value and normalizing to the average absorbance of the vehicle control wells (cells treated with 4% DMSO/PBS).

[2] = target: CRBN/DDB1 in the presence of BD2 domain of BRD4 (Homo sapiens, UniProt O60885+Q96SW2); assay: biochemical
Chain of CRBN/DDB1 in the presence of BD2 domain of BRD4 (Q96SW2 whole entry, looked up, other chains not shown, the tested form may be a part): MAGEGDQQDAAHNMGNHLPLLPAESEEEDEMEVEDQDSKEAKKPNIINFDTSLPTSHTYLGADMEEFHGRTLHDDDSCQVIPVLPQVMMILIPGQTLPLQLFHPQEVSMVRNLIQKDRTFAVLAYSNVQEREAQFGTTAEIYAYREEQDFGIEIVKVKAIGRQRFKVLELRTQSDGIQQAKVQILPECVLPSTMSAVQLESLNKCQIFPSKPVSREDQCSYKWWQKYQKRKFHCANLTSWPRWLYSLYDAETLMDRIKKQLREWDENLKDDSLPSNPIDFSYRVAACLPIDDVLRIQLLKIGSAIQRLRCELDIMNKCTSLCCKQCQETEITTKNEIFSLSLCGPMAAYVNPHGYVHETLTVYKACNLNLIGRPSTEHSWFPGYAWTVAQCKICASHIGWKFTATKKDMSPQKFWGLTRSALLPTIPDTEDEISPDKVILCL

BRD4 with FLAG-CRBN [3] = target: T1, BRD4 with FLAG-CRBN (Homo sapiens, UniProt O60885+Q96SW2); assay: In vitro FLAG-tag co-immunoprecipitation in HEK-CRBN lysates; type: binding; details: 1 μM, 2 h
Method: For in vitro FLAG-tag co-immunoprecipitation, 5.0×10^6 HEK-CRBN cells were collected by centrifugation, lysed in 1× protease/phosphatase inhibitor/1× non-denaturing lysis buffer (400 μL), and cleared by centrifugation (21,000×g, 4° C., 10 min). The soluble portion of the lysate was collected and 200 μL of lysate was incubated with compound of interest at 4° C. for 2 h. […] The magnetic beads were washed with 1× non-denaturing lysis buffer (5×500 μL). The enriched proteins were eluted by the addition of 40 μL of 2× SDS-PAGE loading buffer and heated at 95° C. for 5 min prior to Western blot analysis.

BRD4 with FLAG-CRBN [4] = target: T1, BRD4 with FLAG-CRBN; assay: In vivo FLAG-tag co-immunoprecipitation in HEK-CRBN cells; type: cell-based; details: 25 μM, 2 h, 1 μM MLN4924
Method: For in vivo FLAG-tag co-immunoprecipitation, 5.0×10^6 HEK-CRBN cells were seeded and incubated at 37° C., 5% CO2 for 30 min, and then were treated with 1 μM MLN4924 for 1 h. […] The cells were collected and lysed in 1× protease/phosphatase inhibitor/1× non-denaturing lysis buffer (500 μL) and clarified by centrifugation (21,000×g, 4° C., 10 min). The soluble portion of the lysate was collected and 200 μL of lysate was incubated with of protein G magnetic beads for 20 min (20 μL) to minimize the non-specific binding. […] The magnetic beads were washed with 1× non-denaturing lysis buffer (5×500 μL). Then, the enriched proteins were eluted by addition of 40 μL of 2× SDS-PAGE loading buffer and heated at 95 °C for 5 min prior to Western blot analysis.

[5] = tested on: GST-BRD4 and His-CRBN/DDB1; assay: AlphaScreen for ternary complex formation; type: binding; details: recombinant GST-BRD4 and His-CRBN/DDB1
Method: AlphaScreen buffer (3× stock solution: 150 mM HEPES pH 7.4, 600 mM NaCl, 0.3% w/v BSA, 3 mM TCEP) was prepared fresh for each experiment. A 3× stock solution of each compound (60 μM, 3% DMSO final/1× AlphaScreen buffer) and a series of 2-fold serial dilutions, in 3% DMSO/1× AlphaScreen buffer, were prepared fresh for each experiment. A solution of 750 nM His6-CRBN/DDB1, 375 nM GST-BRD4/1× AlphaScreen buffer (5 μL) was added to each well of a 384-well Optiplate. Then, compound (5 μL) was added, with each concentration assayed in triplicate. As a positive control, 10 μL 100 nM GST-His6 was added to three wells. The plate was sealed with TopSeal A, centrifuged (200× g, 25° C., 1 min), and incubated at 25° C. for 1 h. Under low light, the seal was removed and 5 μL of 60 μg/mL AlphaScreen Glutathione Donor beads, 60 μg/mL AlphaLISA Nickel Chelate […] beads/1× AlphaScreen buffer was added to each well. The plate was sealed with TopSeal A, centrifuged (200× g, 25° C., 1 min), and incubated at 25° C. for 1 h. The seal was removed and the plate was analyzed. Prior to analysis, the plate reader was calibrated with a plate containing 15 μL of 20 μg/mL Omnibeads/1× AlphaScreen buffer in the corner wells. Analysis was performed in Graphpad Prism, using the vehicle-treated wells as the baseline, fitting the signal from each compound to a Gaussian curve, and calculating the area under the curve (AUC).

[6] = target: CRBN/DDB1 in the presence of BD1 domain of BRD4 (Homo sapiens, UniProt O60885+Q96SW2); assay: biochemical
BRD4 = BRD4 (Homo sapiens, UniProt O60885)
IKZF1 [7] = assay: Western blot of IKZF1 levels in MM.1S cells; type: cell-based; details: 10 μM
Method: As needed, a BCA assay was performed to determine the protein concentration of lysates and the concentration was adjusted using lysis buffer. 5× SDS-PAGE loading buffer (5% (v/v) β-mercaptoethanol, 0.02% (w/v) bromophenol blue, 30% (v/v) glycerol, 10% (w/v) SDS/250 mM Tris pH 6.8) was added to the protein samples to a final concentration of 1× and the samples were heated at 95° C. for 5 min. […] Gels were transferred to membranes using the Invitrogen iBlot 2 dry blotting system and iBlot 2 nitrocellulose transfer stacks, using program PO (1 min at 20 V, 4 min at 23 V, 2 min at 25 V) for most proteins and 8 min at 25 V for high molecular weight proteins. Membranes were stained with Ponceau S solution to visualize transfer and protein loading. […] Membranes were washed (3×5 min) with TBST and incubated with secondary antibodies at 24° C. for 1 h. Membranes were washed (3×5 min) with TBST and the results were obtained by chemiluminescence and/or IR imaging using Azure 600 or c600.

CRL4^CRBN complex = CRL4^CRBN complex (Homo sapiens, UniProt Q96SW2); assay: In vitro ubiquitylation of C-terminally tagged proteins; type: biochemical; details: CRL4^CRBN complex isolated from HEK-CRBN cells, 30° C., 90 min
Method: 5.0×10^6 HEK-CRBN cells were collected per pellet, flash frozen with liquid nitrogen, and stored at −80° C. until use. Approximately 1 pellet per 1.5 samples was thawed on ice, and each pellet was resuspended in 1× protease inhibitor cocktail/Pierce IP lysis buffer (250 μL). Lysates were incubated on ice for 10 min, then were clarified by centrifugation (21,000×g, 4° C., 10 min). The soluble portions of the lysates were collected, with 1 mL lysate per tube, and 150 μL of TBS-washed anti-FLAG M2 beads were added. Samples were incubated at 4° C. on a roller for 1 h. Using a magnetic tube rack, the beads were collected and washed 3× with 1 mL TBS. Each sample was then eluted with by adding 100 μL of 100 ng/μL 3× FLAG peptide/TBS and incubating at 4° C. on a roller for 1 h. The eluent was collected. […] Ubiquitylation mastermixes were prepared at 2× with and without E1 and E2 enzymes. Final concentrations (1×) of the mastermix components were 0.2 μM UBE1, 2 μM UbcH5a, 1 mM UbcH5c, 400 μg/mL KO ubiquitin, 1 μM ubiquitin aldehyde, 1× Mg-ATP, 1× E3 ligase buffer, 10 μM MG132, 100 nM MG101. […] Reactions were incubated at 30° C. for 90 min then were stopped by the addition of 6.25 μL of 5× SDS-PAGE loading buffer. Samples were heated at 95° C. for 5 min prior to analysis by SDS-PAGE and Western blotting.

[8] = read-out: KD [ternary] (nM) | BD2
[9] = read-out: KD [ternary] (nM) | BD1

## CC(C)(C)OC(=O)NC(Cc1ccccc1)C(=O)NC1CCC(=O)NC1=O (centres unmarked) [Boc-FcQ]
IKZF1 [1]
  additional substrates degraded (global proteomics): no additional substrates were degraded
  degradation of IKZF1 (global proteomics): not susceptible to degradation
FIG. 22C
  Papp (B-A) (10^-6, cm/s): 18.00 10^-6, cm/s
  Recovery (%)BL-AP: 91.46%
MM.1S cells
  IC50: > 100000 nM

## Cc1sc2c(c1C)C(c1ccc(Cl)cc1)=N[C@@H](CC(=O)NCCCCCCCCC(=O)N[C@@H](C)C(=O)N[C@H]1CCC(=O)NC1=O)c1nnc(C)n1-2 [JQ1-AcQ]
[2]; [8]
  Kd: 76 nM

## Cc1sc2c(c1C)C(c1ccc(Cl)cc1)=N[C@@H](CC(=O)NCCCCCCCCC(=O)N[C@@H](CC(=O)O)C(=O)N[C@H]1CCC(=O)NC1=O)c1nnc(C)n1-2 [JQ1-DcQ]
BRD4 with FLAG-CRBN [3]
  co-immunoprecipitation of BRD4 with FLAG-CRBN in lysates: equivalent co-immunoprecipitation of BRD4 with FLAG-CRBN

## Cc1sc2c(c1C)C(c1ccc(Cl)cc1)=N[C@@H](CC(=O)NCCCCCCCCC(=O)N[C@@H](CCC(=O)O)C(=O)N[C@H]1CCC(=O)NC1=O)c1nnc(C)n1-2 [JQ1-EcQ]
BRD4 with FLAG-CRBN [3]
  co-immunoprecipitation of BRD4 with FLAG-CRBN in lysates: equivalent co-immunoprecipitation of BRD4 with FLAG-CRBN

## Cc1sc2c(c1C)C(c1ccc(Cl)cc1)=N[C@@H](CC(=O)NCCCCCCCCC(=O)N[C@@H](Cc1ccccc1)C(=O)N[C@H]1CC(=O)NC1=O)c1nnc(C)n1-2 [JQ1-FcN]
BRD4 with FLAG-CRBN [4]
  co-immunoprecipitation of BRD4 by FLAG-CRBN in cells: readily co-immunoprecipitated
[5]
  ternary complex formation (AlphaScreen signal / relative area under the curve normalized to dBET6): stronger ternary complex than dBET6

## Cc1sc2c(c1C)C(c1ccc(Cl)cc1)=N[C@@H](CC(=O)NCCCCCCCCC(=O)N[C@@H](Cc1ccccc1)C(=O)N[C@H]1CCC(=O)NC1=O)c1nnc(C)n1-2 [JQ1-FcQ]
BRD4 with FLAG-CRBN [4]
  co-immunoprecipitation of BRD4 by FLAG-CRBN in cells: readily co-immunoprecipitated
[5]
  ternary complex formation (AlphaScreen signal / relative area under the curve normalized to dBET6): stronger ternary complex than dBET6

## Cc1sc2c(c1C)C(c1ccc(Cl)cc1)=N[C@@H](CC(=O)NCCCCCCCCC(=O)N1CCC[C@H]1C(=O)N[C@H]1CCC(=O)NC1=O)c1nnc(C)n1-2 [JQ1-PcQ]
[6]; [9]
  Kd: 381 nM
[2]; [8]
  Kd: 335 nM

## Cc1sc2c(c1C)C(c1ccc(Cl)cc1)=N[C@@H](CC(=O)NCCCCCCCCC(=O)N[C@@H](Cc1ccc(O)cc1)C(=O)N[C@H]1CCC(=O)NC1=O)c1nnc(C)n1-2 [JQ1-YcQ]
[6]; [9]
  Kd: 5 nM
[2]; [8]
  Kd: 277 nM

## Cc1sc2c(c1C)C(c1ccc(Cl)cc1)=N[C@@H](CC(=O)NCCCCCCCCC(=O)N[C@H]1CC(=O)NC1=O)c1nnc(C)n1-2 [JQ1-cN]
[6]
  Kd: 538 nM
[2]
  Kd: 390 nM

## Cc1sc2c(c1C)C(c1ccc(Cl)cc1)=N[C@@H](CC(=O)NCCCCCCCCC(=O)N[C@H]1CCC(=O)NC1=O)c1nnc(C)n1-2 [JQ1-cQ]
[6]
  Kd: 245 nM
[2]
  Kd: 267 nM
BRD4
  degradation of BRD4 (functional degrader or not): inactive
[5]
  ternary complex formation (AlphaScreen signal / relative area under the curve normalized to dBET6): ternary complex formation equivalent to the active JQ1-GcQ

## Nc1cccc2c1CN(C1CCC(=O)NC1=O)C2=O (centres unmarked) [lenalidomide, Lenalidomide, reference compound]
MM.1S cells
  IC50: 31600 nM

## Nc1cccc2c1CN(C1CCC(=O)NC1=O)C2=O (centres unmarked) [lenalidomide, Lenalidomide]
FIG. 22C
  Papp (A-B) (10^-6, cm/s): 1.22 10^-6, cm/s
  Papp (B-A) (10^-6, cm/s): 4.41 10^-6, cm/s

## Nc1cccc2c1C(=O)N(C1CCC(=O)NC1=O)C2=O (centres unmarked) [pomalidomide, Pomalidomide, reference compound]
IKZF1 [7]
  degradation of IKZF1 (Western blot): degraded
IKZF1 [1]
  degradation of IKZF1 (global proteomics): selective degradation of the substrate IKZF1

## GFP-FN: "GFPs tagged with uncyclized glutamine and asparagine, GFP-FQ and GFP-FN" (TGGSLPETFN; not fully specified (N-terminus))
CRL4^CRBN complex
  in vitro ubiquitylation of tagged GFP by CRL4^CRBN complex: no modification

## GFP-FQ: "GFPs tagged with uncyclized glutamine and asparagine, GFP-FQ and GFP-FN" (TGGSLPETFQ; not fully specified (N-terminus))
CRL4^CRBN complex
  in vitro ubiquitylation of tagged GFP by CRL4^CRBN complex: no modification
